Experimental data from ChEMBL document CHEMBL1201862, “PubChem BioAssay data set” (2004).
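Compound exposure: 48 hours, 5 concentrations, 96-well plates. Here, GI50 denotes the concentration required for 50% inhibition of growth.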 Active and inactive are the calls of the source. No stated cut-off is given here; in the data, active = GI50 up to about 1.1 µM and inactive = higher.

Columns and labels:
Assay in all cases: NCI-60 cell line screen, 48 h
[1] = tested on: A549
[2] = tested on: CAKI-1
[3] = tested on: COLO 205
[4] = tested on: HCT-116
[5] = tested on: HCT-15
[6] = tested on: HOP-62
[7] = tested on: IGROV-1
[8] = tested on: K562
[9] = tested on: Malme-3M
[10] = tested on: NCI-H226
[11] = tested on: SF-268
[12] = tested on: SF-539
[13] = tested on: SK-MEL-28
[14] = tested on: SK-OV-3
[15] = tested on: SN12C
[16] = tested on: SNB-19
[17] = tested on: SW-620
[18] = tested on: U-251
[19] = tested on: UACC-257
[20] = tested on: MOLT-4

CCOc1ccccc1N1C(=O)C(=O)C(c2nc3ccccc3o2)/C(=N\N)C1=O (configuration not stated)
GI50 [1]: > 100 µM (inactive)
GI50 [2]: > 100 µM (inactive)
GI50 [3]: > 100 µM (inactive)
GI50 [4]: 79.8 µM (inactive)
GI50 [5]: > 100 µM
GI50 [6]: > 100 µM (inactive)
GI50 [7]: > 100 µM (inactive)
GI50 [8]: > 100 µM (inactive)
GI50 [9]: > 100 µM (inactive)
GI50 [10]: > 100 µM (inactive)
GI50 [11]: 55 µM (inactive)
GI50 [12]: > 100 µM (inactive)
GI50 [13]: > 100 µM (inactive)
GI50 [14]: > 100 µM (inactive)
GI50 [15]: > 100 µM (inactive)
GI50 [16]: > 100 µM (inactive)
GI50 [17]: > 100 µM (inactive)
GI50 [18]: > 100 µM (inactive)
GI50 [19]: 49.9 µM (inactive)

CCC(=O)N1C(=S)SC[C@H]1C(=O)OC
GI50 [1]: > 100 µM (inactive)
GI50 [2]: > 100 µM (inactive)
GI50 [3]: > 100 µM (inactive)
GI50 [4]: > 100 µM (inactive)
GI50 [6]: > 100 µM (inactive)
GI50 [7]: > 100 µM (inactive)
GI50 [8]: > 100 µM (inactive)
GI50 [20]: > 100 µM (inactive)
GI50 [9]: > 100 µM (inactive)
GI50 [10]: > 100 µM (inactive)
GI50 [11]: > 100 µM (inactive)
GI50 [12]: > 100 µM (inactive)
GI50 [13]: > 100 µM (inactive)
GI50 [14]: > 100 µM (inactive)
GI50 [15]: > 100 µM (inactive)
GI50 [16]: > 100 µM (inactive)
GI50 [17]: > 100 µM (inactive)
GI50 [18]: > 100 µM (inactive)
GI50 [19]: > 100 µM (inactive)

CSC1NNC2(C(=O)N1)c1ccccc1-c1ccccc12 (configuration not stated)
GI50 [1]: > 10 µM (inactive)
GI50 [2]: > 10 µM (inactive)
GI50 [3]: > 10 µM (inactive)
GI50 [4]: > 10 µM (inactive)
GI50 [5]: > 10 µM
GI50 [6]: > 10 µM (inactive)
GI50 [7]: > 10 µM (inactive)
GI50 [8]: > 10 µM (inactive)
GI50 [20]: > 10 µM (inactive)
GI50 [9]: > 10 µM (inactive)
GI50 [10]: > 10 µM (inactive)
GI50 [11]: > 10 µM (inactive)
GI50 [12]: > 10 µM (inactive)
GI50 [13]: > 10 µM (inactive)
GI50 [14]: > 10 µM (inactive)
GI50 [15]: > 10 µM (inactive)
GI50 [16]: > 10 µM (inactive)
GI50 [17]: > 10 µM (inactive)
GI50 [19]: > 10 µM (inactive)

O=C(O)C1CCCCC1C(=O)Nc1nc2ccccc2[nH]1 (configuration not stated)
GI50 [1]: > 100 µM (inactive)
GI50 [2]: > 100 µM (inactive)
GI50 [3]: > 100 µM (inactive)
GI50 [4]: > 100 µM (inactive)
GI50 [5]: > 100 µM
GI50 [6]: > 100 µM (inactive)
GI50 [7]: > 100 µM (inactive)
GI50 [20]: 39.5 µM (inactive)
GI50 [9]: > 100 µM (inactive)
GI50 [10]: > 100 µM (inactive)
GI50 [11]: > 100 µM (inactive)
GI50 [12]: > 100 µM (inactive)
GI50 [13]: > 100 µM (inactive)
GI50 [14]: > 100 µM (inactive)
GI50 [15]: > 100 µM (inactive)
GI50 [16]: > 100 µM (inactive)
GI50 [17]: > 100 µM (inactive)
GI50 [18]: > 100 µM (inactive)
GI50 [19]: > 100 µM (inactive)

O=C1/C(=C\c2cccc(Oc3ccccc3)c2)S(=O)(=O)C(c2ccccc2)N1c1ccccc1Cl (configuration not stated)
GI50 [1]: 31.6 µM (inactive)
GI50 [2]: 32.6 µM (inactive)
GI50 [3]: 17.6 µM (inactive)
GI50 [4]: 15.4 µM (inactive)
GI50 [5]: 31.2 µM
GI50 [6]: 26.4 µM (inactive)
GI50 [7]: 17.1 µM (inactive)
GI50 [8]: 14.5 µM (inactive)
GI50 [20]: 15.1 µM (inactive)
GI50 [9]: 32.6 µM (inactive)
GI50 [10]: 29.6 µM (inactive)
GI50 [12]: 5.83 µM (inactive)
GI50 [13]: 38.9 µM (inactive)
GI50 [14]: 34.2 µM (inactive)
GI50 [15]: 23 µM (inactive)
GI50 [16]: 16.1 µM (inactive)
GI50 [17]: 30.2 µM (inactive)
GI50 [18]: 27.9 µM (inactive)
GI50 [19]: 28.6 µM (inactive)

O=[N+]([O-])C(=C(Nc1ccccc1)Nc1ccccc1)C(Cl)=C(Cl)Cl
GI50 [1]: 17.7 µM (inactive)
GI50 [2]: 17.1 µM (inactive)
GI50 [3]: 17.5 µM (inactive)
GI50 [4]: 12.5 µM (inactive)
GI50 [5]: 16.3 µM
GI50 [6]: 21.9 µM (inactive)
GI50 [7]: 12.9 µM (inactive)
GI50 [8]: 10.3 µM (inactive)
GI50 [9]: 19.6 µM (inactive)
GI50 [10]: 19 µM (inactive)
GI50 [11]: 18.7 µM (inactive)
GI50 [12]: 20.2 µM (inactive)
GI50 [13]: 18.7 µM (inactive)
GI50 [14]: 29 µM (inactive)
GI50 [15]: 17.1 µM (inactive)
GI50 [16]: 17.9 µM (inactive)
GI50 [17]: 14.5 µM (inactive)
GI50 [18]: 20.2 µM (inactive)
GI50 [19]: 14.9 µM (inactive)

CSc1ccc(-c2cc(-c3nc4ccccc4[nH]3)nc(N)c2C#N)cc1
GI50 [1]: 23.1 µM (inactive)
GI50 [2]: 18.3 µM (inactive)
GI50 [3]: 15.9 µM (inactive)
GI50 [4]: 17.9 µM (inactive)
GI50 [5]: 20.2 µM
GI50 [6]: 19.1 µM (inactive)
GI50 [7]: 8.67 µM (inactive)
GI50 [8]: 18.4 µM (inactive)
GI50 [20]: 8.39 µM (inactive)
GI50 [9]: 19.4 µM (inactive)
GI50 [10]: 21.3 µM (inactive)
GI50 [11]: 17.3 µM (inactive)
GI50 [12]: 23.6 µM (inactive)
GI50 [13]: 20.2 µM (inactive)
GI50 [14]: 33 µM (inactive)
GI50 [15]: 25.8 µM (inactive)
GI50 [16]: 25.2 µM (inactive)
GI50 [17]: 31.3 µM (inactive)
GI50 [19]: 18.5 µM (inactive)

CN(C)c1n/c(=N/c2ncn[nH]2)ss1
GI50 [1]: > 100 µM (inactive)
GI50 [2]: > 100 µM (inactive)
GI50 [4]: > 100 µM (inactive)
GI50 [5]: > 100 µM
GI50 [6]: > 100 µM (inactive)
GI50 [7]: > 100 µM (inactive)
GI50 [8]: > 100 µM (inactive)
GI50 [20]: > 100 µM (inactive)
GI50 [9]: > 100 µM (inactive)
GI50 [10]: > 100 µM (inactive)
GI50 [11]: > 100 µM (inactive)
GI50 [12]: > 100 µM (inactive)
GI50 [13]: > 100 µM (inactive)
GI50 [14]: > 100 µM (inactive)
GI50 [15]: > 100 µM (inactive)
GI50 [16]: > 100 µM (inactive)
GI50 [17]: > 100 µM (inactive)
GI50 [18]: > 100 µM (inactive)
GI50 [19]: > 100 µM (inactive)

O=C1c2cccc3c(Cl)ccc(c23)C(=O)N1CCCN1CCN(CCCN2C(=O)c3cccc4c(Cl)ccc(c34)C2=O)CC1
GI50 [1]: > 100 µM (inactive)
GI50 [2]: > 100 µM (inactive)
GI50 [3]: > 100 µM (inactive)
GI50 [4]: 66.7 µM (inactive)
GI50 [5]: > 100 µM
GI50 [6]: > 100 µM (inactive)
GI50 [7]: > 100 µM (inactive)
GI50 [8]: 86.1 µM (inactive)
GI50 [20]: 57.3 µM (inactive)
GI50 [9]: > 100 µM (inactive)
GI50 [10]: > 100 µM (inactive)
GI50 [12]: > 100 µM (inactive)
GI50 [14]: > 100 µM (inactive)
GI50 [15]: > 100 µM (inactive)
GI50 [16]: > 100 µM (inactive)
GI50 [17]: > 100 µM (inactive)
GI50 [18]: 55.7 µM (inactive)
GI50 [19]: > 100 µM (inactive)

CC1C2CC=CC(=O)[C@@]2(C)CCC12OCCO2 (some centres not stated)
GI50 [1]: > 100 µM (inactive)
GI50 [2]: > 100 µM (inactive)
GI50 [4]: > 100 µM (inactive)
GI50 [6]: > 100 µM (inactive)
GI50 [7]: > 100 µM (inactive)
GI50 [8]: > 100 µM (inactive)
GI50 [20]: > 100 µM (inactive)
GI50 [9]: 17.5 µM (inactive)
GI50 [10]: > 100 µM (inactive)
GI50 [11]: > 100 µM (inactive)
GI50 [12]: > 100 µM (inactive)
GI50 [13]: > 100 µM (inactive)
GI50 [14]: > 100 µM (inactive)
GI50 [15]: > 100 µM (inactive)
GI50 [16]: > 100 µM (inactive)
GI50 [17]: > 100 µM (inactive)
GI50 [18]: > 100 µM (inactive)
GI50 [19]: > 100 µM (inactive)

CC1=C[C@@H](C)C[C@]2(C)CC[C@H](O2)[C@]23CC[C@](CO)(C[C@H](O2)[C@@H]2O[C@@](C)(CC2=O)[C@@H](O)[C@H]2CC[C@@]4(CCC[C@@H](O4)[C@H](C)C(=O)O[C@H]4C[C@H]([C@]5(O)OCC[C@H](C)[C@@H]5O)O[C@H]4C=C1)O2)O3
GI50 [1]: 0.0294 µM (active)
GI50 [2]: 0.00724 µM (active)
GI50 [3]: 0.00192 µM (active)
GI50 [4]: 0.0222 µM (active)
GI50 [5]: 0.15 µM
GI50 [6]: 0.00345 µM (active)
GI50 [7]: 0.00373 µM (active)
GI50 [8]: 0.0183 µM (active)
GI50 [9]: 0.00873 µM (active)
GI50 [10]: 0.00386 µM (active)
GI50 [11]: 0.00279 µM (active)
GI50 [12]: 0.00272 µM (active)
GI50 [13]: 0.0124 µM (active)
GI50 [14]: 0.0177 µM (active)
GI50 [15]: 0.0212 µM (active)
GI50 [16]: 0.0197 µM (active)
GI50 [17]: 0.214 µM (active)
GI50 [18]: 0.022 µM (active)
GI50 [19]: 0.142 µM (active)
